In patent US20110039824A1, “1,2,3,6-tetrahydroazepino[4,5-b]indole-5-carboxylate nuclear receptor inhibitors” (Wyeth, priority 2008, published 2011):

How the values were obtained:
[1] = target: T1, Progesterone Receptor (PR) (Homo sapiens, UniProt P06401); assay: Progesterone receptor (PR) antagonism, alkaline phosphatase assay in T47D cells; assay type: cell-based; details: percent inhibition @ 10 μM vs 1 nM progesterone
T1 sequence (P06401 679-933 limits assumed): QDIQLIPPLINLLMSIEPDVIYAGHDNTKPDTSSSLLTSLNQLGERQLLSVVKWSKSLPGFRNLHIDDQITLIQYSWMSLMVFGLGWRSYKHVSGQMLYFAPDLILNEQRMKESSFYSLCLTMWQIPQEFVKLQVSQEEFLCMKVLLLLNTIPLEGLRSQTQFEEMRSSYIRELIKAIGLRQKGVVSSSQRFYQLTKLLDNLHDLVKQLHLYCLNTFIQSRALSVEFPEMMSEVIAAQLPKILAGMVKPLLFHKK
Procedure: DMEM:F12 (1:1) (GIBCO, BRL) supplemented with 5% (v/v) charcoal stripped fetal bovine serum (not heat-inactivated), 100 U/ml penicillin, 100 jig/ml streptomycin, and 2 mM GlutaMax (GIBCO, BRL).
I. 0.1M Tris-HCl, pH 9.8, containing 0.2% Triton X-100 II. 0.1 M Tris-HCl, pH 9.8, containing 4 mM p-nitrophenyl phosphate (Sigma).
Frozen T47D cells were thawed in a 37° C. water bath and diluted to 280,000 cells/ml in culture medium. To each well in a 96-well plate (Falcon, Becton Dickinson Labware), 180 μl of diluted cell suspension was added. Twenty μl of reference or test compounds diluted in the culture medium were then added to each well. When testing for progestin antagonist activity, reference antiprogestins or test compounds were added in the presence of 1 nM progesterone. The cells were incubated at 37° C. in a 5% CO2/humidified atmosphere for 24 hours.
At the end of treatment, the medium was removed from the plate. Fifty μl of assay buffer I was added to each well. The plates were shaken in a titer plate shaker for […]. Then 150 μl of assay buffer II was added to each well. Optical density measurements were taken at 5 min intervals for 30 min at a test wavelength of 405 nm.

[2] = tested on: LDLR KO Mouse Model; assay: Mouse serum triglyceride (TG) and cholesterol levels in LDLR -/- mice; assay type: in vivo; details: daily oral gavage 7 days
Procedure: Eight-week old LDLR −/−mice were purchased from Jackson Laboratories and maintained on a chow diet. Some LDLR −/−mice were fed a western diet (AlN-76A; Purina Test Diets) as indicated. All mice were treated by daily oral gavage with vehicle or varying concentrations of compound for 7 days. On the last day after the final dose, the food was removed to allow a 3 hr fast and serum was harvested for analysis. Serum TG and cholesterol levels were determined using a Roche 912 clinical chemistry analyzer and expressed as mg/dL.

[3] = PAMPA permeability; assay type: in vitro ADME
[4] = tested on: Caco2; assay: Caco2 permeability; assay type: in vitro ADME
[5] = Solubility in 2% Tween/0.5% MC aq.; assay type: physicochemical
[6] = target: hERG (Homo sapiens, UniProt Q12809); assay: hERG function; details: values printed as concentrations; read-out: hERG function (% Inh. @ 10 μM)
Sequence of hERG (Q12809 whole entry): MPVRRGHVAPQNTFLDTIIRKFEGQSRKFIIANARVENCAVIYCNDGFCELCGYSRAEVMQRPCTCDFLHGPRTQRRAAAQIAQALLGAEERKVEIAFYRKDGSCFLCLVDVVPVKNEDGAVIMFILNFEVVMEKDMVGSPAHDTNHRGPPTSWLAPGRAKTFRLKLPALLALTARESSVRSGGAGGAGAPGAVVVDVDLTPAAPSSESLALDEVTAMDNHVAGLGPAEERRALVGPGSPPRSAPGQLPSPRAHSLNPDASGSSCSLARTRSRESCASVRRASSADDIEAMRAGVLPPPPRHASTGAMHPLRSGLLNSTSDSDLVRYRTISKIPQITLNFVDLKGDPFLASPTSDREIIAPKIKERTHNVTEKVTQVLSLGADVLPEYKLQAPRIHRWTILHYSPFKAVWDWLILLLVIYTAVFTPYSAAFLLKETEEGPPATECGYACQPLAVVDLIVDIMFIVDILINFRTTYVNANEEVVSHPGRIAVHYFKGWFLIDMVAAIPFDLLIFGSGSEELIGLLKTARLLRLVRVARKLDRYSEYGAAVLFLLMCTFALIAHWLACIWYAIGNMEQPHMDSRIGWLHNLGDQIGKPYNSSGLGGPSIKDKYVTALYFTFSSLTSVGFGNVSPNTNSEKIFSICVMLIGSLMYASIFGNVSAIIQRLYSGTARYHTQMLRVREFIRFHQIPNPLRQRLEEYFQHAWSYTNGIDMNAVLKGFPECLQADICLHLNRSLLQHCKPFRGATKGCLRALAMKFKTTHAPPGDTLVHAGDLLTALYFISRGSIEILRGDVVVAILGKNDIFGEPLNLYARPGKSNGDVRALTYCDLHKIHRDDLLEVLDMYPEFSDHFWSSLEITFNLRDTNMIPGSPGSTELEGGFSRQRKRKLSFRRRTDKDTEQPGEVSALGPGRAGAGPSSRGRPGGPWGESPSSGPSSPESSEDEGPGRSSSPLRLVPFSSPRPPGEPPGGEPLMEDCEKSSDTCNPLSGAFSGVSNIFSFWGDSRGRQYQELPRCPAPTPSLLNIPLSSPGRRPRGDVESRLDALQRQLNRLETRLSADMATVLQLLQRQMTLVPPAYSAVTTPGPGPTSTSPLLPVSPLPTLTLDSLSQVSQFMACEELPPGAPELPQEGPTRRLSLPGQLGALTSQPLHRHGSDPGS

[7] = target: CYP450 2C9 (Homo sapiens, UniProt P11712); assay: CYP450 2C9 inhibition; assay type: in vitro ADME
Sequence of CYP450 2C9 (P11712 whole entry, the tested form may be a part): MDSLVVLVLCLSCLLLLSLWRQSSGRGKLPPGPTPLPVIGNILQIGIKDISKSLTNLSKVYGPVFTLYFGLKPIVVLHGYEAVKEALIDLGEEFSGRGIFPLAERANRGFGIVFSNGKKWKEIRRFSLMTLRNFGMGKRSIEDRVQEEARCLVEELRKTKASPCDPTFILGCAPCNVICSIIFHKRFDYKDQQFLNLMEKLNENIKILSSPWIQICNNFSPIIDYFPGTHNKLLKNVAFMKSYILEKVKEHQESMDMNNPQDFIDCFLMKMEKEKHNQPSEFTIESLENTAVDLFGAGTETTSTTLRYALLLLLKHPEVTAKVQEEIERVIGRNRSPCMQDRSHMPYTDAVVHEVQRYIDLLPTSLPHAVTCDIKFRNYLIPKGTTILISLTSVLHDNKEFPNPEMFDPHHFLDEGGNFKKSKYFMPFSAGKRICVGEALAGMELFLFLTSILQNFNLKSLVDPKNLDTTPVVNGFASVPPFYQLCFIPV

[8] = target: T2, Gal4/hFXR fusion protein (Homo sapiens, UniProt Q96RI1); assay: Gal4/hFXR fusion protein agonist activity in human 293 cells (luciferase); assay type: cell-based; design: rows headed: hFXR agonist EC50; hFXR agonist eff. @ 30 μM; other: efficacy @ 30 μM; details: efficacy @ 30 μM
T2 sequence (Q96RI1 262-486 limits assumed): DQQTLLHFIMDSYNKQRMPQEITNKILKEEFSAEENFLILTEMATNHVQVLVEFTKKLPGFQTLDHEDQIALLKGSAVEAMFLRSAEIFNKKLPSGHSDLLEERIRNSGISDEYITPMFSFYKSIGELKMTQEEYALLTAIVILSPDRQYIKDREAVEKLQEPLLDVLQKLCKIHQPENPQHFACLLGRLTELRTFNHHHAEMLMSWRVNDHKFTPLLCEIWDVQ
Procedure: • Assay Medium: Phenol red free high glucose Dulbecco's modified Eagle's medium with sodium pyruvate (Cellgro, #17-205-CV) supplemented with 10% fetal bovine serum (Gibco, 16000-044), 1% glutamax (Gibco, 35050-061), 100 units/mL penicillin and 100 μg/mL streptomycin (Gibco, 15140-122). • Culturplate-96 (PerkinElmer, 6005688) • Lysis buffer (Promega, E3971) • Luciferase assay reagent (Promega E1483)
• 1. Compounds to be tested were prepared as 2× stocks in assay medium. • 2. […] The supernatant was removed and the cells were resuspended in 1 ml assay medium. The cells were counted and diluted in assay medium to 200,000 cells per ml. The cells were then plated at 10,000 cells per well in Culturplate-96 plates in 50 uL assay medium. The cells were incubated at 37° C. for approximately 1 hour. • 3. […] All assays included 1 uM GW4064 (Maloney et al., J. Med. Chem., 2000, 43(16), 2971-2974) as a reference standard. • 4. Cells were incubated for 24 hours at 37° C.
• 5. […] The plates were analyzed for luciferase activity with luciferase assay reagent (Promega E1483). Plates were read on Victor^3V instrument using the protocol “Shuguang Luciferase assay” (dispense volume=100 uL, plate type=“Packard Viewplate”, measurement height=8 mm from bottom of plate, 5 second read per well).
• 1. For agonist single point screening, data were analyzed in Excel. […]

[9] = target: CYP450 3A4 (Homo sapiens, UniProt P08684); assay: CYP450 3A4 inhibition; assay type: in vitro ADME
Sequence of CYP450 3A4 (P08684 whole entry): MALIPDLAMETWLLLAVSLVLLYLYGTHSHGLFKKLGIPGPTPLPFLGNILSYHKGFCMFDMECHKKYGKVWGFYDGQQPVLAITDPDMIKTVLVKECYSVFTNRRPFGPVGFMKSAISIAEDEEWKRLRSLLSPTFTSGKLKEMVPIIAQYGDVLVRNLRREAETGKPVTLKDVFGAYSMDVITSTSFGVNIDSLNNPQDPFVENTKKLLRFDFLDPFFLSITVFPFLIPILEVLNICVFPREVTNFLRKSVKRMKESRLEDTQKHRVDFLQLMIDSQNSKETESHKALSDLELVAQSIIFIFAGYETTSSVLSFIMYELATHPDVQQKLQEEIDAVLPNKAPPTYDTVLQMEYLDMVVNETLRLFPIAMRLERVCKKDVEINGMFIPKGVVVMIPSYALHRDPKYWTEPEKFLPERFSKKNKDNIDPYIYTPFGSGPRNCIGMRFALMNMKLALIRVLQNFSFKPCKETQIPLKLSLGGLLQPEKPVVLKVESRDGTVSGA

[10] = Pharmacokinetics (bioavailability, half life); assay type: in vivo
[11] = target: CYP450 2D6 (Homo sapiens, UniProt P10635); assay: CYP450 2D6 inhibition; assay type: in vitro ADME
Sequence of CYP450 2D6 (P10635 whole entry): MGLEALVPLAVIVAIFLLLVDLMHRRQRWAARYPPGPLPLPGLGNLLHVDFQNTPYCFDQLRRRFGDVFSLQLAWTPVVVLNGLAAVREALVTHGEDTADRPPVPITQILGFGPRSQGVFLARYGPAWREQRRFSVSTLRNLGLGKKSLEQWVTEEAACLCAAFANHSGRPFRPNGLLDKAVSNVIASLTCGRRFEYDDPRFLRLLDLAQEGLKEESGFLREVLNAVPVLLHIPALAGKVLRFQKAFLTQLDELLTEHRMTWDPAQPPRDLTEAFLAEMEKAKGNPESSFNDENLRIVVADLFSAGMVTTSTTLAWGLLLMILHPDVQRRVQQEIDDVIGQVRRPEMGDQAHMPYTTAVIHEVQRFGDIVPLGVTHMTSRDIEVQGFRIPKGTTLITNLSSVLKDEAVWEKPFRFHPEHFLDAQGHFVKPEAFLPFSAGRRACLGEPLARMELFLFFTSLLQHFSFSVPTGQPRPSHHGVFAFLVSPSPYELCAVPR

[12] = HLM stability; assay type: in vitro ADME; details: human, liver microsomes; read-out: HLM (t1/2)

Compound | PR Antagonism (Alk. Phos. Assay @ 10 μM) [1] | Reduction of Total Cholesterol in a LDLR KO Mouse Model (Female) @ 10 mpk [2] [%] | Reduction of Triglycerides in a LDLR KO Mouse Model (Female) @ 10 mpk [2] [%] | Reduction of Total Cholesterol in a LDLR KO Mouse Model (Male) @ 10 mpk [2] [%] | Reduction of Triglycerides in a LDLR KO Mouse Model (Male) @ 10 mpk [2] [%] | PAMPA Permeability (Pe × 10^−6) [3] | Transport mechanism [4] | Caco2 Permeability (Pe × 10^−6) A-B [4] | Caco2 Permeability (Pe × 10^−6) B-A [4] | 2% Tween/0.5% MC aq. sol. (mg/mL) [5] [mg/mL] | 2% Tween/0.5% MC aq. sol. (μM) [5] [µM] | IC50 [6] [µM] | Caco2 Permeability, class ([4]; class in words) | CYP450 2C9 % I @ 3 μM [7] [%] | hFXR agonist eff. @ 30 μM [8] [%] | CYP450 3A4 % I @ 3 μM [9] [%] | Bioavailability (dosed in aqueous MC/Tween) [10] | CYP450 2D6 % I @ 3 μM [11] [%] | half-life [12] [min]
CC(C)OC(=O)C1=CN(C(=O)c2ccc(OCCCN3CCOCC3)cc2)CC(C)(C)c2c1[nH]c1cc(F)ccc21 [Example 30, Isopropyl 8-fluoro-1,1-dimethyl-3-[4-(3-morpholin-4-ylpropoxy)benzoyl]-1,2,3,6-tetrahydroazepino[4,5-b]indole-5-carboxylate] | 95% | 60 | 65 | 74 | 78 | 0.66 × 10^−6 | passive | 0.8 × 10^−6 | 0.8 × 10^−6 | 0.20 | 355.0 | – | – | – | – | – | – | – | –
CC(C)OC(=O)C1=CN(C(=O)c2ccc(OCCCN3CCOCC3)cc2)CC(C)(C)c2c1[nH]c1ccccc21 [Reference Compound 1, 1-methylethyl-1,1-dimethyl-3-({4-[(3-morpholin-4-ylpropyl)oxy]phenyl}carbonyl)-1,2,3,6-tetrahydroazepino[4,5-b]indole-5-carboxylate] | 90% | 40 | 25 | 49 | 59 | 0 × 10^−6 | passive | – | – | 0.19 | 332.0 | – | – | – | – | – | – | – | –
CC(C)OC(=O)C1=CN(C(=O)c2ccc(F)c(F)c2)CC(C)(C)c2c1[nH]c1ccccc21 [Reference Compound 2, isopropyl-3-(3,4-difluorobenzoyl)-1,1-dimethyl-1,2,3,6-tetrahydroazepino[4,5-b]indole-5-carboxylate] | 44% @ 10 μM | 36 | 39 | 47 | 71 | 0 × 10^−6 | passive | 0.5 × 10^−6 | 0.5 × 10^−6 | 0.01 | 22.0 | > 10 | Low | 24 | 179 | 43 | poor | 5 | 18
